According to ChEMBL document CHEMBL1201862, “PubChem BioAssay data set” (2004):
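Compound exposure: 48 hours, 5 concentrations, 96-well plates. The concentration for 50% growth inhibition is given as GI50.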 Activity calls are given as the source filed them. No stated cut-off is given here; in the data, active = GI50 up to about 1.1 µM and inactive = higher. Positions of bridges follow the written chain, without caps; N, C: chain ends. Non-standard residues stand in square brackets, D forms with d. Residues, ends and D or L forms follow the SMILES beside them. ξ: configuration not given here. *: point of attachment. X28 = O=C(/C=C/C=C/C=C/C=C/C=C/C(=O)*)NC1=C(O)CCC1=O; Pro(4R-Me) = C[C@H]1CN[C@H](C(=O)O)C1; NMeA = CN[C@@H](C)C(=O)O; ξF = NC(Cc1ccccc1)C(=O)O; ξA = CC(N)C(=O)O

Tests used:
Assay in all cases: NCI-60 cell line screen, 48 h
[1] = tested on: OVCAR-5
[2] = tested on: NCI-H522
[3] = tested on: MDA-MB-435
[4] = tested on: OVCAR-3
[5] = tested on: HCC 2998
[6] = tested on: T47D
[7] = tested on: TK-10
[8] = tested on: NCI/ADR-RES
[9] = tested on: SF-295
[10] = tested on: A549
[11] = tested on: UO-31
[12] = tested on: SNB-19
[13] = tested on: SK-MEL-5
[14] = tested on: UACC-62
[15] = tested on: UACC-257
[16] = tested on: PC-3
[17] = tested on: CCRF-CEM
[18] = tested on: SN12C
[19] = tested on: RXF 393
[20] = tested on: HT-29
[21] = tested on: SK-OV-3
[22] = tested on: BT-549
[23] = tested on: MDA-MB-231
[24] = tested on: SR
[25] = tested on: DU-145
[26] = tested on: NCI-H23
[27] = tested on: COLO 205
[28] = tested on: HCT-15
[29] = tested on: K562
[30] = tested on: Hs-578T
[31] = tested on: SF-539
[32] = tested on: SNB-75
[33] = tested on: LOX IMVI
[34] = tested on: Malme-3M
[35] = tested on: IGROV-1
[36] = tested on: SK-MEL-2
[37] = tested on: A498
[38] = tested on: CAKI-1
[39] = tested on: SW-620
[40] = tested on: NCI-H460
[41] = tested on: HOP-92
[42] = tested on: HCT-116
[43] = tested on: EKVX
[44] = tested on: M14
[45] = tested on: MCF7
[46] = tested on: KM12
[47] = tested on: RPMI-8226
[48] = tested on: 786-0
[49] = tested on: HL-60
[50] = tested on: ACHN
[51] = tested on: U-251
[52] = tested on: SK-MEL-28
[53] = tested on: SF-268
[54] = tested on: OVCAR-4
[55] = tested on: MDA-N
[56] = tested on: HOP-62
[57] = tested on: NCI-H226
[58] = tested on: OVCAR-8
[59] = tested on: MOLT-4

SMILES: CC1NC(=O)[C@H](C)N(C)C(=O)[C@@H]2CCCN2C(=O)[C@@H](NC(=O)C(Cc2ccccc2)NC(=O)/C=C/C=C/C=C/C=C/C=C/C(=O)NC2=C(O)CCC2=O)COC(=O)[C@@H]2C[C@@H](C)CN2C1=O (stereo partly drawn) (X28-[ξF]SP[NMeA][ξA][Pro(4R-Me)]; ester 2-C)
- GI50 [1]: > 100 µM (inactive)
- GI50 [2]: > 100 µM (inactive)
- GI50 [3]: > 100 µM (inactive)
- GI50 [4]: > 100 µM (inactive)
- GI50 [5]: > 100 µM (inactive)
- GI50 [6]: > 100 µM (inactive)
- GI50 [7]: 54.8 µM (inactive)
- GI50 [8]: > 100 µM (inactive)
- GI50 [9]: > 100 µM (inactive)
- GI50 [10]: > 100 µM (inactive)
- GI50 [11]: > 100 µM (inactive)
- GI50 [12]: > 100 µM (inactive)
- GI50 [13]: > 100 µM (inactive)
- GI50 [14]: > 100 µM (inactive)
- GI50 [15]: > 100 µM (inactive)
- GI50 [16]: > 100 µM (inactive)
- GI50 [17]: > 100 µM (inactive)
- GI50 [18]: > 100 µM (inactive)
- GI50 [19]: > 100 µM (inactive)
- GI50 [20]: > 100 µM (inactive)
- GI50 [21]: > 100 µM (inactive)
- GI50 [22]: > 100 µM (inactive)
- GI50 [23]: > 100 µM (inactive)
- GI50 [24]: > 100 µM (inactive)
- GI50 [25]: > 100 µM (inactive)
- GI50 [26]: > 100 µM (inactive)
- GI50 [27]: > 100 µM (inactive)
- GI50 [28]: > 100 µM
- GI50 [29]: > 100 µM (inactive)
- GI50 [30]: > 100 µM (inactive)
- GI50 [31]: > 100 µM (inactive)
- GI50 [32]: > 100 µM (inactive)
- GI50 [33]: > 100 µM (inactive)
- GI50 [34]: > 100 µM (inactive)
- GI50 [35]: > 100 µM (inactive)
- GI50 [36]: > 100 µM (inactive)
- GI50 [37]: > 100 µM (inactive)
- GI50 [38]: > 100 µM (inactive)
- GI50 [39]: > 100 µM (inactive)
- GI50 [40]: > 100 µM (inactive)
- GI50 [41]: > 100 µM (inactive)
- GI50 [42]: > 100 µM (inactive)
- GI50 [43]: > 100 µM (inactive)
- GI50 [44]: > 100 µM (inactive)
- GI50 [45]: > 100 µM (inactive)
- GI50 [46]: > 100 µM (inactive)
- GI50 [47]: > 100 µM (inactive)
- GI50 [48]: > 100 µM (inactive)
- GI50 [49]: > 100 µM (inactive)
- GI50 [50]: > 100 µM (inactive)
- GI50 [51]: > 100 µM (inactive)
- GI50 [52]: > 100 µM (inactive)
- GI50 [53]: > 100 µM (inactive)
- GI50 [54]: > 100 µM (inactive)
- GI50 [55]: > 100 µM (inactive)
- GI50 [56]: > 100 µM (inactive)

SMILES: O=[N+]([O-])c1ccc2[nH]ncc2c1Cl
- GI50 [1]: 23.6 µM (inactive)
- GI50 [2]: 3.74 µM (inactive)
- GI50 [3]: 36.1 µM (inactive)
- GI50 [4]: 33.8 µM (inactive)
- GI50 [5]: 29.6 µM (inactive)
- GI50 [6]: 17.5 µM (inactive)
- GI50 [7]: 83.6 µM (inactive)
- GI50 [8]: 26.5 µM (inactive)
- GI50 [9]: 86.3 µM (inactive)
- GI50 [10]: 45 µM (inactive)
- GI50 [12]: 36.8 µM (inactive)
- GI50 [13]: 13.3 µM (inactive)
- GI50 [14]: 34.2 µM (inactive)
- GI50 [15]: 31.2 µM (inactive)
- GI50 [16]: 29.6 µM (inactive)
- GI50 [17]: 46 µM (inactive)
- GI50 [18]: 31.7 µM (inactive)
- GI50 [19]: 42.8 µM (inactive)
- GI50 [20]: 17.9 µM (inactive)
- GI50 [21]: 53.5 µM (inactive)
- GI50 [57]: 8.69 µM (inactive)
- GI50 [22]: 38.5 µM (inactive)
- GI50 [23]: 0.0108 µM (active)
- GI50 [24]: 1.03 µM (active)
- GI50 [25]: 16.6 µM (inactive)
- GI50 [27]: 13.4 µM (inactive)
- GI50 [28]: 23.3 µM
- GI50 [29]: 18.3 µM (inactive)
- GI50 [30]: 21.4 µM (inactive)
- GI50 [58]: 27.5 µM (inactive)
- GI50 [31]: 36.7 µM (inactive)
- GI50 [32]: 35.9 µM (inactive)
- GI50 [33]: 17.5 µM (inactive)
- GI50 [35]: 18 µM (inactive)
- GI50 [36]: 20.2 µM (inactive)
- GI50 [37]: 74.6 µM (inactive)
- GI50 [38]: > 10 µM (inactive)
- GI50 [39]: 31.6 µM (inactive)
- GI50 [40]: 33.1 µM (inactive)
- GI50 [41]: 63 µM (inactive)
- GI50 [42]: 24 µM (inactive)
- GI50 [43]: 20.6 µM (inactive)
- GI50 [45]: 41.7 µM (inactive)
- GI50 [46]: 25.3 µM (inactive)
- GI50 [47]: 20.1 µM (inactive)
- GI50 [48]: 36.3 µM (inactive)
- GI50 [49]: 29.8 µM (inactive)
- GI50 [50]: 24.7 µM (inactive)
- GI50 [51]: 42.5 µM (inactive)
- GI50 [52]: 33.5 µM (inactive)
- GI50 [59]: 22.8 µM (inactive)
- GI50 [54]: 26.8 µM (inactive)
- GI50 [55]: 16.1 µM (inactive)
- GI50 [56]: 50.6 µM (inactive)
